Measurements from publication PMC4779441 (International journal of peptide research and therapeutics, 2015).

Test system: HCT-116 cells
Test: In vitro cells' growth inhibition assay
Conditions: Homo sapiens, HCT-116, 48 h, read-out: EC50 [µM] HCT-116

CC(=O)O[C@@]12CO[C@@H]1C[C@H](O)[C@@]1(C)C(=O)[C@H](O)C3=C(C)[C@@H](OC(=O)[C@H](O)[C@@H](NC(=O)OC(C)(C)C)c4ccccc4)C[C@@](O)([C@@H](OC(=O)c4ccccc4)[C@H]21)C3(C)C [DTX, Docetaxel]
EC50: 74.5 ± 3.7 µM
